Tests used:
Details in all cases: incubation time: 72 h
BT-474 [1] = assay: normalised response (% of control), CellTox Green; higher = less cell death (100 = DMSO, 0 = benzethonium chloride kill control)
In short: (§1)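 Compound was dispensed into 384-well plates at 5 concentrations in 10-fold steps spanning a 10,000-fold range specific to that compound. Breast cancer cell lines were added as 20 µl suspension and left for 72 h before CellTox Green fluorescence (485/520 nm) and then CellTiter-Glo luminescence, read after 10 min at room temperature. Each reported value is the normalised signal at one concentration, with 0.1 % DMSO set at 100 and a positive kill control at 0 on each plate.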

BT-549 [2] = assay: as above
In short: as §1

CAL-120 [3] = assay: as above
In short: as §1

CAL-148 [4] = assay: as above
In short: as §1

CAL-51 [5] = assay: as above
In short: as §1

CAL-85-1 [6] = assay: as above
In short: as §1

DU-4475 [7] = assay: as above
In short: as §1

HCC1143 [8] = assay: as above
In short: as §1

HCC1599 [9] = assay: as above
In short: as §1

HDQ-P1 [10] = assay: as above
In short: as §1

Hs578T [11] = assay: as above
In short: as §1

MCF-10A [12] = assay: as above
In short: as §1

MDA-MB-231 [13] = assay: as above
In short: as §1

MDA-MB-436 [14] = assay: as above
In short: as §1

MDA-MB-453 [15] = assay: as above
In short: as §1

MDA-MB-468 [16] = assay: as above
In short: as §1

MFM-223 [17] = assay: as above
In short: as §1

BT-474 [18] = assay: normalised response (% of control), CellTiter-Glo; higher = more viable cells (100 = DMSO, 0 = benzethonium chloride kill control)
Description: (§2)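 DSRT, 72 h incubation, CellTox Green / CellTiter-Glo readout. Signal is normalised to DMSO and benzethonium chloride controls. Value is the normalised response at dose 3.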

BT-549 [19] = assay: as above
Description: as §2

CAL-120 [20] = assay: as above
Description: as §2

CAL-148 [21] = assay: as above
Description: as §2

CAL-51 [22] = assay: as above
Description: as §2

CAL-85-1 [23] = assay: as above
Description: as §2

DU-4475 [24] = assay: as above
Description: as §2

HCC1143 [25] = assay: as above
Description: as §2

HCC1599 [26] = assay: as above
Description: as §2

HCC1937 [27] = assay: as above
Description: as §2

HDQ-P1 [28] = assay: as above
Description: as §2

Hs578T [29] = assay: as above
Description: as §2

MCF-10A [30] = assay: as above
Description: as §2

MDA-MB-231 [31] = assay: as above
Description: as §2

MDA-MB-436 [32] = assay: as above
Description: as §2

MDA-MB-453 [33] = assay: as above
Description: as §2

MDA-MB-468 [34] = assay: as above
Description: as §2

MFM-223 [35] = assay: as above
Description: as §2

SK-BR-3 = assay: as above
Description: as §2

HCC1937 [36] = assay: normalised response (% of control), CellTox Green; higher = less cell death (100 = DMSO, 0 = benzethonium chloride kill control)
In short: as §1

| SMILES | normalised response (BT-474 [1]) | normalised response (BT-549 [2]) | normalised response (CAL-120 [3]) | normalised response (CAL-148 [4]) | normalised response (CAL-51 [5]) | normalised response (CAL-85-1 [6]) | normalised response (DU-4475 [7]) | normalised response (HCC1143 [8]) | normalised response (HCC1599 [9]) | normalised response (HDQ-P1 [10]) | normalised response (Hs578T [11]) | normalised response (MCF-10A [12]) | normalised response (MDA-MB-231 [13]) | normalised response (MDA-MB-436 [14]) | normalised response (MDA-MB-453 [15]) | normalised response (MDA-MB-468 [16]) | normalised response (MFM-223 [17]) | normalised response (BT-474 [18]) | normalised response (BT-549 [19]) | normalised response (CAL-120 [20]) | normalised response (CAL-148 [21]) | normalised response (CAL-51 [22]) | normalised response (CAL-85-1 [23]) | normalised response (DU-4475 [24]) | normalised response (HCC1143 [25]) | normalised response (HCC1599 [26]) | normalised response (HCC1937 [27]) | normalised response (HDQ-P1 [28]) | normalised response (Hs578T [29]) | normalised response (MCF-10A [30]) | normalised response (MDA-MB-231 [31]) | normalised response (MDA-MB-436 [32]) | normalised response (MDA-MB-453 [33]) | normalised response (MDA-MB-468 [34]) | normalised response (MFM-223 [35]) | normalised response (SK-BR-3) | normalised response (HCC1937 [36]) |
| --- | --- | --- | --- | --- | --- | --- | --- | --- | --- | --- | --- | --- | --- | --- | --- | --- | --- | --- | --- | --- | --- | --- | --- | --- | --- | --- | --- | --- | --- | --- | --- | --- | --- | --- | --- | --- | --- |
| Cn1c(Nc2ccc(C(F)(F)F)cc2)nc2cc(Oc3ccnc(-c4ncc(C(F)(F)F)[nH]4)c3)ccc21 [RAF265] (10 nM) | 96.2% | 98.1% | 101% | 103% | 92.7% | 106% | 103% | 116% | 107% | 52.6% | 98% | 64.3% | 104% | 90.1% | 108% | 158% | 103% | 107% | 99.5% | 107% | 113% | 83.3% | 99.6% | 105% | 102% | 116% | 100% | 99.2% | 106% | 118% | 110% | 109% | 106% | 102% | 105% | 108% | – |
| CS(=O)(=O)c1ccc(C2=C(c3ccccc3)C(=O)OC2)cc1 [Rofecoxib] (100 nM) | 104% | 95.7% | 104% | 101% | 111% | 107% | 108% | 98.7% | 101% | – | 103% | 88.5% | 117% | 104% | 106% | 118% | 88.2% | 101% | 106% | 104% | 109% | 105% | 102% | 102% | 108% | 99% | 95.8% | 98.7% | 109% | 114% | 106% | 105% | 108% | 104% | 104% | 110% | 68.7% |
| CN(N=O)C(=O)N[C@@H](C=O)[C@@H](O)[C@H](O)[C@H](O)CO [Streptozocin] (100 nM) | 103% | 107% | 107% | – | 105% | 107% | 105% | 114% | 104% | – | 52.8% | 64.2% | 113% | 111% | 104% | 124% | 75.2% | 102% | 100% | 109% | 107% | 106% | 104% | 102% | 106% | 104% | 99.8% | 107% | 109% | 109% | 112% | 101% | 103% | 98.8% | 103% | 102% | 73.6% |
| Oc1nc(-c2ccc(C(F)(F)F)cc2)nc2c1CSCC2 [XAV-939] (100 nM) | 101% | 98.8% | 101% | 99.6% | 90.2% | 111% | 102% | 108% | 101% | – | 109% | 95.1% | 100% | 102% | 105% | 130% | 96.6% | 93.2% | 103% | 96.3% | 101% | 77.1% | 99.6% | 99.8% | 104% | 92.3% | 92.9% | 106% | 101% | 98.5% | 90.9% | 102% | 98.2% | 92% | 97% | 99.1% | 104% |

— the supplement of paper PMC4862054
